Measured values published in patent US11576913B2 (priority 2018, dated 2023).

Experiments:
[1] = triazolam tablets administered orally; cited from earlier work
[2] = test system: healthy, non-dependent, recreational sedative users; assay: Human abuse potential study, Drug Liking VAS; type: in vivo; conditions: for Drug Liking VAS - EMAX LSMean: N = 50, 100 point bipolar scale; for Drug liking from placebo, Triazolam 1 mg compared with Triazolam 0.5 mg (words): 1 mg vs 0.5 mg
Experimental: This study was designed as a randomized, single-dose, double-blinded, double dummy, crossover study. The study population was healthy, nondependent recreational polydrug users with a history of Central Nervous System (CNS) depressant use.
Subjects were screened no more than 28 days before check-in of period 1. Study drug was administered in each period according to the study randomization schedule. During Qualification, there was a minimum 24 hour washout period between each study drug administration. During the Treatment phase, there was a minimum 48-hour washout period between each study drug administration. Subjects were confined to the unit the day prior to, and for at least approximately 24 hours following, study drug administration during each period. If subjects were discharged between treatment periods, subjects returned to the unit the day prior to dosing.
The Qualification Phase was designed to ensure that polydrug abusing subjects with self-reported recreational CNS depressant/sedative drug experience were able to tolerate and discriminate between orally administered triazolam tablets and placebo as well as to report positive subjective effects of the drug in a controlled laboratory setting. This phase was also used to exclude “placebo responders”, i.e., subjects who report subjective effects of placebo. This phase also helped familiarize subjects with, and trained them in the use of, various scales and questionnaires that measure subjective effects.
The comparators in an abuse potential study are typically controlled substances from the same pharmacologic class as the investigational drug. However, Compound (1C) is a novel drug class for which no controlled substances/drugs of abuse are available for comparison. […] There was no evidence of other effects of interest to abusers, such as perceptual disturbances or stimulation. […] Placebo control was used to establish the frequency and magnitude of changes in clinical endpoints that may occur in the absence of active treatment as well as to minimize subject and investigator bias.
In all of the study phases, treatments were blinded to the greatest extent possible to reduce potential bias during data collection and evaluation of clinical endpoints. Because study subjects were recreational drug users and familiar with the effects of the drug substances being studied, the double-dummy technique was be used in the Treatment Phase to maintain blinding. Subjects received tablets orally in each treatment period. Placebo was matched in size and shape to each of the tablet types, and a method to blind subjects will be employed.
For each phase, subjects received treatments according to the randomization schema. During the Treatment Phase, subjects were be randomized to 1 of sequences in a 6×6 Williams square crossover design.
Compound (1C) was administered orally in an immediate release tablet comprising the pharmaceutically acceptable excipients croscarmellose sodium (FMC Health and Nutrition, Philadelphia, Pa.), hydroxypropylcellulose (Ashland Inc., Covington, Ky.), microcrystalline cellulose (Dupont, Chicago, Ill.), mannitol (SPI Pharma, Wilmington, Del.), magnesium stearate (PlusPharma Inc., Vista, Calif.), and sodium lauryl sulfate (BASF Corp, Upper St. Clair, Pa.). […] Placebo tablets matching the Compound (1C) tablets were orally administered in the same way. The placebo tablets comprised the above-described pharmaceutically acceptable excipients but with no Compound (1C). Triazolam was administered at a dose of 0.5 or 1 mg. Trial endpoints are provided below.
Peak Maximum Effect (Emax) for Drug Liking (“at this moment”) visual analog scale (“VAS”), was measured by study participants providing a score on a 100 point bipolar scale with 100 as strong liking, 50 as the neutral point of neither liking nor disliking, and 0 as strong disliking. […]

[3] = test system: healthy, non-dependent, recreational sedative users; assay: Human abuse potential study, adverse events and tolerability; type: in vivo; conditions: N = 50
Experimental: Adverse events were coded to MedDRA terms. Data for AEs were analyzed using the treatment-emergent signs and symptoms (TESS) philosophy. Treatment-emergent signs and symptoms are defined as AEs that: • Emerge during treatment, having been absent at pretreatment; or • Reemerge during treatment, having been present at pretreatment but stopped prior to treatment; or • Worsen in intensity during treatment relative to the pretreatment state, when the AE is continuous.
Subjects were counted only once in the incidence count for a specific MedDRA Preferred Term, although a MedDRA Preferred Term might be reported more than once for a particular subject. Separate summaries will be provided for Treatment-emergent AEs (“TEAEs”) by maximum intensity (mild, moderate, severe) and relationship (yes, no) to study drug. A TEAE was considered related to study drug if the investigator reported the event to be “definitely, probably, possibly, or unlikely” related to treatment on the CRF.

For Cc1nnc2n1-c1ccc(Cl)cc1C(c1ccccc1Cl)=NC2 [Triazolam, triazolam, reference compound], the “Time to maximum concentration” value [1] is given as roughly 1.3 h, the “Drug Liking VAS - EMAX Diff from Placebo LSMean” value ([2]; 0.5 mg) is given as 20.4 points and the “Drug liking compared with placebo (words)” value ([2]; 0.5 mg) is given as “significant”. For the same molecule, the “Drug Liking VAS - EMAX LSMean” value ([2]; 0.5 mg single oral dose) was 75.5, the “Drug liking compared with placebo (words)” value ([2]; 0.5 mg, listed as triazolam) was “significantly greater than placebo” and the “Drug Liking VAS - EMAX Diff from Placebo LSMean” value ([2]; 1 mg) was 23.5 points. The “Drug liking compared with placebo (words)” value ([2]; 1 mg) was “significant”, the “Drug Liking VAS - EMAX LSMean” value ([2]; 1 mg single oral dose) was 78.6 and the “Drug liking from placebo, Triazolam 1 mg compared with Triazolam 0.5 mg (words)” value [2] was “Triazolam 1 mg had greater drug liking from”. The “Drug liking from placebo, Triazolam 1 mg compared with Triazolam 0.5 mg (words)” value ([2]; listed as triazolam) was “greater drug liking from placebo than triazolam 0.5 mg”, the “Drug liking compared with placebo (words)” value ([2]; 1 mg, listed as triazolam) was “significantly greater than placebo” and the Amnesia ([3]; 0.5 mg) was 3 (6) n (%). For the same molecule, the Ataxia ([3]; 0.5 mg) was 21 (42) n (%), the Diplopia ([3]; 0.5 mg) was 4 (8) n (%) and the Dizziness ([3]; 0.5 mg) was 7 (14) n (%). For the same molecule, the Euphoric mood ([3]; 0.5 mg) was 1 (2) n (%), the Headache ([3]; 0.5 mg) was 2 (4) n (%) and the Hiccups ([3]; 0.5 mg) was 10 (20) n (%). For the same molecule, the Nausea ([3]; 0.5 mg) was 0 n (%), the Somnolence ([3]; 0.5 mg) was 45 (90) n (%) and the Vision blurred ([3]; 0.5 mg) was 3 (6) n (%). For the same molecule, the Amnesia ([3]; 1 mg) was 12 (24) n (%), the Ataxia ([3]; 1 mg) was 28 (56) n (%) and the Diplopia ([3]; 1 mg) was 5 (10) n (%). The Dizziness ([3]; 1 mg) was 6 (12) n (%), the Euphoric mood ([3]; 1 mg) was 2 (4) n (%) and the Headache ([3]; 1 mg) was 0 n (%). For the same molecule, the Hiccups ([3]; 1 mg) was 14 (28) n (%), the Nausea ([3]; 1 mg) was 1 (2) n (%) and the Somnolence ([3]; 1 mg) was 49 (98) n (%). For the same molecule, the Vision blurred ([3]; 1 mg) was 2 (4) n (%).
